Assay results published in PMC6295194 (Science translational medicine, 2018).
Structures can show the parent of a compound that is named as a salt.

Legend:
rhesus monkeys [1] = test: Tolerance to antinociceptive effects after 4 weeks repeated administration; settings: 2 injections daily for 4 weeks: morphine 1.8 mg/kg, AT-121 0.03 mg/kg
rhesus monkeys [2] = test: Warm water tail-withdrawal assay; assay type: in vivo, rhesus monkeys (Macaca mulatta); settings: Macaca mulatta, sc, read-out: antinociception ED50
human NOP receptor = human NOP receptor (Homo sapiens, UniProt P41146); assay type: biochemical; settings: percentage of stimulation of standard full agonist N/OFQ (100%)
rhesus monkeys [3] = test: Physiological responses by radio-telemetry; assay type: in vivo, rhesus monkeys (Macaca mulatta); settings: 1 mg/kg i.m., single monkey
rhesus monkeys [4] = tested on: rhesus monkeys; set-up: species or system rhesus monkeys (Macaca mulatta); settings: rhesus monkey, in vivo

human NOP receptor, sequence (P41146 whole entry): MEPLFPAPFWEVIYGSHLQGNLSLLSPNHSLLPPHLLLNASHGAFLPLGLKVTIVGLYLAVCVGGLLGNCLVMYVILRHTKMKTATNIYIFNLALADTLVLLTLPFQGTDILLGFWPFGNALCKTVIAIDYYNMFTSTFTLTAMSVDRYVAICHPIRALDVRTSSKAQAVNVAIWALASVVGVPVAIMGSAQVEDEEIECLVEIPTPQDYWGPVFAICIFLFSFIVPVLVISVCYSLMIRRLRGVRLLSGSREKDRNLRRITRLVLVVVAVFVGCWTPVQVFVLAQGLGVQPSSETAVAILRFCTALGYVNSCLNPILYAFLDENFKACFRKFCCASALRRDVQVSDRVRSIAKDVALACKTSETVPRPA

Q: With `CN1CC[C@]23c4c5ccc(O)c4O[C@H]2[C@@H](O)C=C[C@H]3[C@H]1C5` [Morphine, Morphine sulfate] as the compound, how does the “tolerance to antinociceptive effects” value (rhesus monkeys [1]) read?
A: decrease in antinociceptive effects

Q: What about the ED50 (rhesus monkeys [2]) of the same compound?
A: 1 mg/kg

Q: What about the “[35S]GTPγS NOP % Stim” value (human NOP receptor) of the same compound?
A: 5.4 ± 1%

Q: For `CC(=O)Oc1ccc2c3c1O[C@H]1[C@@H](OC(C)=O)C=C[C@H]4[C@@H](C2)N(C)CC[C@@]341` [heroin, diamorphine HCl], which respiratory depression (rhesus monkeys [3]) is on record?
A: caused respiratory depression

Q: And the “time to respiratory depression” value (rhesus monkeys [3])?
A: < 20 min

Q: With `O=C1CC[C@@]2(O)[C@H]3Cc4ccc(O)c5c4[C@@]2(CCN3CC2CC2)[C@H]1O5` [naltrexone, naltrexone HCl] as the compound, how does the “effect of pretreatment on reinforcing effects of oxycodone” value (rhesus monkeys [4]) read?
A: effectively attenuated the reinforcing effects of oxycodone

Q: For buprenorphine HCl, which “effect of pretreatment on reinforcing effects of oxycodone” value (rhesus monkeys [4]) is on record?
A: effectively attenuated the reinforcing effects of oxycodone
